In ChEMBL document CHEMBL3045185, “Characterization of metabolites of fungicidal cymoxanil in a sensitive strain of Botrytis cinerea” (J Agric Food Chem, 2008) one finds EC50 and half-life data, which are given here for five molecules.

Values after ≈ are worked out from the molar mass of the structure shown. Where only a bound is given, the exact number is not on record here.

The test system of series [1] is Botrytis cinerea. The experiment in a line: Fungicidal activity against drug sensitive Botryotinia fuckeliana assessed as inhibition of germ tube elongation. Format: functional, organism-based.
Series [2] is described as follows: Half life in drug sensitive Botryotinia fuckeliana cultures. As to conditions: botrytis cinerea, in vivo; call rule not given here.
Series [3] can be described thus: Half life in soil assessed as compound degradation through hydrolysis and microbial degradation.
Where [4] appears, read: Botrytis cinerea, read-out: EC50.

For `CC(=O)NC(C#N)C(=O)O` (configuration not stated), the EC50 in series [1] (setting [4]) turned out to be 0.025 µg/mL (≈ 0.176 µM).
As to `CCNC(=O)N1C(=O)C(C#N)=NC1(C)C`, the EC50 result in series [1] is given as “Not Active”.
`CCN1C(=O)NC(=O)C1=O`: in series [1], the EC50 entry is “Not Active”.
On to `CCN1C(=O)NC(=O)/C1=N/OC`, for which the concentration giving a half-maximal response (EC50) entry in series [1] is on record as “Not Active”.
Turning to `CCNC(=O)NC(=O)/C(C#N)=N/OC` [CYMOXANIL], the half-life in series [2] was no more than 2 h; in series [3], less than 48 h. The EC50 in series [1] (setting [4]) was 0.25 µg/mL (≈ 1.26 µM).
